In US8192962B2, “Processes for detecting toxic substances” (Daikin Industries, Ltd., priority 2001, dated 2012):

Test system: Metabolism protein genes
Assay: DNA chip mRNA expression in yeast, metabolism protein genes (Table 7)
Format: cell-based, Saccharomyces cerevisiae S288C
Procedure: Yeast (Saccharomyces cerevisiae S288C (α SUC2mal mel gap2 CUP1)) were incubated at 25° C. on YPD medium (yeast extract 1%, polypepton 2%, glucose 2%). One of toxic chemical substances was added to the cells at logarithmic growth phase, and the cells were further incubated for two hours. Cells were cultured without any chemical substance in the same condition, and were used as control. Concentrations of the chemical substances were defined to inhibit the growth of the yeast but not lead to death.
After completion of the incubation, the culture was centrifuged to collect the cells. To the cells, sodium acetate buffer (50 mM sodium acetate, 10 mM EDTA, 1% SDS) was added, and the mixture was shaken at 65° C. for five minutes, followed by returning to room temperature, and obtaining the supernatant, of which the procedures were repeated two times. To the supernatant, ½ amount of a solution of phenol/chloroform was added, and the mixture was centrifuged to give a supernatant, which was added with an equal amount of chloroform, and the mixture was centrifuged to give a supernatant. To the supernatant, an equal amount of isopropanol containing 0.3 M sodium acetate was added, and the mixture was allowed to stand at room temperature for 30 minutes, after which the mixture was centrifuged to give a sediment of the whole RNAs. Seventy % ethanol was added to the sediment, and the mixture was again centrifuged to give a sediment, which was then dried and dissolved in water. mRNA was isolated from the whole RNAs as followings. In view of the fact that a poly A chain is attached to the 3′ terminus of mRNA, a polynucleotide having a poly T structure which was immobilized on the surface of latex beads was used to trap the mRNA, and then the mRNA was washed and eluted with spine column (Oligotex-dT30<Super>mRNA Purification Kit, Takara). Reverse transcription of the mRNA was conducted with a reverse transcriptase (Super Script II Reverse Transcriptase; catalogue No. 18064-014, GibcoBRL) using fluorescence-labeled nucleotides to give cDNAs that were introduced with Cy3-dUTP or Cy5-dUTP during the reverse transcription.
The labeled cDNAs were dissolved in TE buffer (10mM Tris-HCl/1 mM EDTA, pH8.0), and the solution was dropped on the DNA chip containing the whole genes of yeast (DNA Chip Research Inc. Japan) so that the cDNAs were hybridized on the DNA chip at 65° C. for over 12 hours. The fluoresces intensity of the DNA chip was read with a scanner, and the ratio relative to the fluorescence intensity resulting from the absence of chemical substance was estimated as the following, which is shown in Tables 1 to 9: […]

Oc1cc(Cl)c(Cl)cc1Cl [(6), 2,4,5-trichlorophenol]
The level of expressed mRNA in the presence of chemical substance/The level of expressed mRNA in the absence of chemical substance (yeast gene YAL012W): 1.6
The level of expressed mRNA in the presence of chemical substance/The level of expressed mRNA in the absence of chemical substance (yeast gene YAL038W): 1.3
The level of expressed mRNA in the presence of chemical substance/The level of expressed mRNA in the absence of chemical substance (yeast gene YBL001C): 2.4
level of expressed mRNA in the presence/in the absence of chemical substance (yeast gene YBR003W): 1.2
level of expressed mRNA in the presence/in the absence of chemical substance (yeast gene YBR011C): 2.0
level of expressed mRNA in the presence/in the absence of chemical substance (yeast gene YBR020W): 0.8
The level of expressed mRNA in the presence of chemical substance/The level of expressed mRNA in the absence of chemical substance (yeast gene YBR023C): 0.5
The level of expressed mRNA in the presence of chemical substance/The level of expressed mRNA in the absence of chemical substance (yeast gene YBR029C): 0.8
The level of expressed mRNA in the presence of chemical substance/The level of expressed mRNA in the absence of chemical substance (yeast gene YBR111C): 3.0
The level of expressed mRNA in the presence of chemical substance/The level of expressed mRNA in the absence of chemical substance (yeast gene YBR183W): 2.5
The level of expressed mRNA in the presence of chemical substance/The level of expressed mRNA in the absence of chemical substance (yeast gene YBR222C): 1.3
The level of expressed mRNA in the presence of chemical substance/The level of expressed mRNA in the absence of chemical substance (yeast gene YBR256C): 2.0
The level of expressed mRNA in the presence of chemical substance/The level of expressed mRNA in the absence of chemical substance (yeast gene YCL009C): 1.8
The level of expressed mRNA in the presence of chemical substance/The level of expressed mRNA in the absence of chemical substance (yeast gene YCL064C): 3.3
level of expressed mRNA in the presence/in the absence of chemical substance (yeast gene YCR010C): 1.3
level of expressed mRNA in the presence/in the absence of chemical substance (yeast gene YCR034W): 0.3
The level of expressed mRNA in the presence of chemical substance/The level of expressed mRNA in the absence of chemical substance (yeast gene YCR048W): 0.2
The level of expressed mRNA in the presence of chemical substance/The level of expressed mRNA in the absence of chemical substance (yeast gene YCR098C): 1.6
The level of expressed mRNA in the presence of chemical substance/The level of expressed mRNA in the absence of chemical substance (yeast gene YDR009W): 2.4
The level of expressed mRNA in the presence of chemical substance/The level of expressed mRNA in the absence of chemical substance (yeast gene YDR019C): 4.8
level of expressed mRNA in the presence/in the absence of chemical substance (yeast gene YDR050C): 1.7
level of expressed mRNA in the presence/in the absence of chemical substance (yeast gene YDR073W): 1.3
level of expressed mRNA in the presence/in the absence of chemical substance (yeast gene YDR123C): 0.7
level of expressed mRNA in the presence/in the absence of chemical substance (yeast gene YDR178W): 2.1
level of expressed mRNA in the presence/in the absence of chemical substance (yeast gene YDR277C): 1.1
level of expressed mRNA in the presence/in the absence of chemical substance (yeast gene YDR284C): 1.8
level of expressed mRNA in the presence/in the absence of chemical substance (yeast gene YDR345C): 1.2
The level of expressed mRNA in the presence of chemical substance/The level of expressed mRNA in the absence of chemical substance (yeast gene YDR380W): 0.4
level of expressed mRNA in the presence/in the absence of chemical substance (yeast gene YDR400W): 1.1
level of expressed mRNA in the presence/in the absence of chemical substance (yeast gene YDR408C): 0.9
level of expressed mRNA in the presence/in the absence of chemical substance (yeast gene YDR483W): 1.5
The level of expressed mRNA in the presence of chemical substance/The level of expressed mRNA in the absence of chemical substance (yeast gene YDR497C): 0.6
The level of expressed mRNA in the presence of chemical substance/The level of expressed mRNA in the absence of chemical substance (yeast gene YDR502C): 1.5
The level of expressed mRNA in the presence of chemical substance/The level of expressed mRNA in the absence of chemical substance (yeast gene YDR516C): 1.8
level of expressed mRNA in the presence/in the absence of chemical substance (yeast gene YEL063C): 1.3
The level of expressed mRNA in the presence of chemical substance/The level of expressed mRNA in the absence of chemical substance (yeast gene YER014W): 4.0
level of expressed mRNA in the presence/in the absence of chemical substance (yeast gene YER015W): 0.9
The level of expressed mRNA in the presence of chemical substance/The level of expressed mRNA in the absence of chemical substance (yeast gene YER026C): 2.5
The level of expressed mRNA in the presence of chemical substance/The level of expressed mRNA in the absence of chemical substance (yeast gene YER053C): 2.8
The level of expressed mRNA in the presence of chemical substance/The level of expressed mRNA in the absence of chemical substance (yeast gene YER069W): 1.3
level of expressed mRNA in the presence/in the absence of chemical substance (yeast gene YER081W): 1.1
The level of expressed mRNA in the presence of chemical substance/The level of expressed mRNA in the absence of chemical substance (yeast gene YER096W): 1.2
level of expressed mRNA in the presence/in the absence of chemical substance (yeast gene YER120W): 1.5
The level of expressed mRNA in the presence of chemical substance/The level of expressed mRNA in the absence of chemical substance (yeast gene YER178W): 2.5
level of expressed mRNA in the presence/in the absence of chemical substance (yeast gene YFL011W): 1.0
The level of expressed mRNA in the presence of chemical substance/The level of expressed mRNA in the absence of chemical substance (yeast gene YFL014W): 9.3
The level of expressed mRNA in the presence of chemical substance/The level of expressed mRNA in the absence of chemical substance (yeast gene YFL030W): 1.3
The level of expressed mRNA in the presence of chemical substance/The level of expressed mRNA in the absence of chemical substance (yeast gene YFL031W): 0.3
